Experimental data from article PMC8173716 (Nature nanotechnology, 2020).

How the values were obtained:
mouse NE = assay: Inhibition of mouse NE cleavage of vABNs by sivelestat, in vitro; assay type: biochemical
NE [1] = assay: vABN breath test in PA01-inoculated mice treated with sivelestat; assay type: in vivo, mouse; details: sivelestat before vABN delivery
NE [2] = details: cited from earlier work
NE [3] = assay: vABN breath test in LPS-challenged mice given prophylactic A1AT; assay type: in vivo, mouse (female C57BL/6N)
NE [4] = assay: vABN breath test in WT and SERPINA1a-e knockout mice; assay type: in vivo, mouse (male C57BL/6 WT and Serpina1a-e knockout); details: 1 mg prophylactic A1AT, LPS
NE in mouse lung lysates = details: cited from earlier work
human NE = details: cited from earlier work

Compound: CC(C)(C)C(=O)Oc1ccc(S(=O)(=O)Nc2ccccc2C(=O)NCC(=O)O)cc1 [sivelestat]
- inhibition of mouse NE cleavage of vABNs (mouse NE): mouse NE can be inhibited using sivelestat to prevent cleavage of vABNs
- attenuation of breath signal in infected mice (NE [1]): ~ 75%
- specific inhibition of NE (NE [2]): specifically inhibits NE

Compound: A1AT: Alpha-1 antitrypsin, a protein inhibitor of NE
- breath signal after LPS challenge (NE [3]; 1-mg A1AT 1–2 days before LPS challenge, vs untreated LPS-challenged controls): significantly reduce breath signal
- breath signal after LPS challenge (NE [3]; 1-mg A1AT 3 days before LPS challenge (D-3), vs untreated controls): absence of significant difference
- AUROC, untreated vs A1AT-treated (NE [3]; A1AT 1 day before LPS challenge (D-1)): 0.97
- AUROC, untreated vs A1AT-treated (NE [3]; A1AT 2 days before LPS challenge (D-2)): 0.91
- AUROC, untreated vs A1AT-treated (NE [3]; A1AT 3 days before LPS challenge (D-3)): 0.50
- correlation between breath signal and A1AT in the lungs (Pearson's r) (NE [3]; p = 0.0293): −0.6018
- protection by day 3 (NE [3]; single 1 mg AAT dose): No protection is observed by day 3
- neutrophil recruitment / anti-inflammatory effect (NE [2]): suppressed neutrophil recruitment, a well-documented anti-inflammatory effect of A1AT
- breath signal in A1AT-treated knockout mice vs untreated knockout mice (NE [4]; p < 0.05, n = 7–8): significantly lower than that in untreated knockout mice
- AUROC, A1AT-treated knockout vs WT with acute inflammation (NE [4]; p = 0.568): 0.60

Compound: Ac-Nle(O-Bzl)-Met(O)2-Oic-Abu-ACC
- binding in mouse lung lysates (NE in mouse lung lysates): bind specifically to NE in mouse lung lysates
- selectivity for human NE (human NE): selectivity for human NE
- catalytic efficiency (kcat/Km) (human NE; fluorogenic ACC substrate): 4.79e+07 M⁻¹ s⁻¹
